Measurements: the supplement of paper PMC10307832

Columns and labels:
Test in all cases: relative viability (nuclei count vs DMSO), 5 days (fraction); higher = more cells survive
NCI-H1650 = tested on: NCI-H1650
Method in brief: (§1)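 Nuclei were stained with Hoechst during a one-step fixation (final 0.05% Triton X-100, 1% formaldehyde, 1 ug/ml Hoechst) carried out 5 days after dosing, then counted on 4× images. The cells, lung cancer lines in 1536-well plates, had been dosed by pin tool the day after seeding with one drug alone or a fixed anchor-drug dose plus five library-drug doses (not always all listed) in √10 steps. Relative viability is the nuclei count in treated wells divided by that in vehicle wells, and each value is the median of duplicate plates.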

HCC-44 = tested on: HCC-44
Method in brief: as §1

NCI-H1975 = tested on: NCI-H1975
Method in brief: as §1

NCI-H1792 = tested on: NCI-H1792
Method in brief: as §1

201T = tested on: 201T
Method in brief: as §1

NCI-H441 = tested on: NCI-H441
Method in brief: as §1

SK-MES-1 = tested on: SK-MES-1
Method in brief: as §1

NCI-H23 = tested on: NCI-H23
Method in brief: as §1

BEN = tested on: BEN
Method in brief: as §1

NCI-H596 = tested on: NCI-H596
Method in brief: as §1

HARA = tested on: HARA
Method in brief: as §1

NCI-H358 = tested on: NCI-H358
Method in brief: as §1

HCC-827 = tested on: HCC-827
Method in brief: as §1

COR-L23 = tested on: COR-L23
Method in brief: as §1

NCI-H838 = tested on: NCI-H838
Method in brief: as §1

SW 900 = tested on: SW 900
Method in brief: as §1

EKVX = tested on: EKVX
Method in brief: as §1

NCI-H1437 = tested on: NCI-H1437
Method in brief: as §1

NCI-H2342 = tested on: NCI-H2342
Method in brief: as §1

A-427 = tested on: A-427
Method in brief: as §1

HCC-15 = tested on: HCC-15
Method in brief: as §1

NCI-H650 = tested on: NCI-H650
Method in brief: as §1

Question: What does the source list for COc1cc2nccc(Oc3ccc(NC(=O)Nc4cc(C)on4)c(Cl)c3)c2cc1OC [Tivozanib] + N=C(N)NC(=N)NCCc1ccccc1 [Phenformin] (partner 250 µM)?
Answer: relative viability (NCI-H1650; first compound 0.005 µM): 0.454; relative viability (NCI-H1650; first compound 0.01581 µM): 0.515; relative viability (NCI-H1650; first compound 0.05 µM): 0.486; relative viability (NCI-H1650; first compound 0.1581 µM): 0.497; relative viability (NCI-H1650; first compound 0.5 µM): 0.353; relative viability (HCC-44; first compound 0.005 µM): 0.152; relative viability (HCC-44; first compound 0.01581 µM): 0.234; relative viability (HCC-44; first compound 0.05 µM): 0.19; relative viability (HCC-44; first compound 0.1581 µM): 0.18; relative viability (HCC-44; first compound 0.5 µM): 0.131; relative viability (NCI-H1975; first compound 0.005 µM): 0.398; relative viability (NCI-H1975; first compound 0.01581 µM): 0.429; relative viability (NCI-H1975; first compound 0.05 µM): 0.397; relative viability (NCI-H1975; first compound 0.1581 µM): 0.423; relative viability (NCI-H1975; first compound 0.5 µM): 0.395; relative viability (NCI-H1792; first compound 0.005 µM): 0.316; relative viability (NCI-H1792; first compound 0.01581 µM): 0.394; relative viability (NCI-H1792; first compound 0.05 µM): 0.361; relative viability (NCI-H1792; first compound 0.5 µM): 0.388; relative viability (201T; first compound 0.005 µM): 0.447; relative viability (201T; first compound 0.01581 µM): 0.405; relative viability (201T; first compound 0.05 µM): 0.423; relative viability (201T; first compound 0.1581 µM): 0.445; relative viability (201T; first compound 0.5 µM): 0.469; relative viability (NCI-H441; first compound 0.005 µM): 0.797; relative viability (NCI-H441; first compound 0.01581 µM): 0.782; relative viability (NCI-H441; first compound 0.05 µM): 0.823; relative viability (NCI-H441; first compound 0.1581 µM): 0.881; relative viability (NCI-H441; first compound 0.5 µM): 0.735; relative viability (SK-MES-1; first compound 0.005 µM): 0.622; relative viability (SK-MES-1; first compound 0.01581 µM): 0.676; relative viability (SK-MES-1; first compound 0.05 µM): 0.71; relative viability (SK-MES-1; first compound 0.1581 µM): 0.688; relative viability (SK-MES-1; first compound 0.5 µM): 0.602; relative viability (NCI-H23; first compound 0.005 µM): 0.727; relative viability (NCI-H23; first compound 0.01581 µM): 0.824; relative viability (NCI-H23; first compound 0.05 µM): 0.783; relative viability (NCI-H23; first compound 0.1581 µM): 0.752; relative viability (NCI-H23; first compound 0.5 µM): 0.809; relative viability (BEN; first compound 0.005 µM): 0.25; relative viability (BEN; first compound 0.01581 µM): 0.279; relative viability (BEN; first compound 0.05 µM): 0.224; relative viability (BEN; first compound 0.1581 µM): 0.314; relative viability (BEN; first compound 0.5 µM): 0.234; relative viability (NCI-H596; first compound 0.005 µM): 0.744; relative viability (NCI-H596; first compound 0.01581 µM): 0.699; relative viability (NCI-H596; first compound 0.05 µM): 0.777; relative viability (NCI-H596; first compound 0.5 µM): 0.798; relative viability (HARA; first compound 0.005 µM): 0.452; relative viability (HARA; first compound 0.01581 µM): 0.41; relative viability (HARA; first compound 0.05 µM): 0.424; relative viability (HARA; first compound 0.1581 µM): 0.364; relative viability (HARA; first compound 0.5 µM): 0.489; relative viability (NCI-H358; first compound 0.005 µM): 0.306; relative viability (NCI-H358; first compound 0.01581 µM): 0.265; relative viability (NCI-H358; first compound 0.05 µM): 0.411; relative viability (NCI-H358; first compound 0.1581 µM): 0.301; relative viability (NCI-H358; first compound 0.5 µM): 0.447; relative viability (HCC-827; first compound 0.005 µM): 0.402; relative viability (HCC-827; first compound 0.01581 µM): 0.434; relative viability (HCC-827; first compound 0.05 µM): 0.391; relative viability (HCC-827; first compound 0.1581 µM): 0.43; relative viability (HCC-827; first compound 0.5 µM): 0.452; relative viability (COR-L23; first compound 0.005 µM): 0.427; relative viability (COR-L23; first compound 0.01581 µM): 0.433; relative viability (COR-L23; first compound 0.05 µM): 0.446; relative viability (COR-L23; first compound 0.1581 µM): 0.43; relative viability (COR-L23; first compound 0.5 µM): 0.409; relative viability (NCI-H838; first compound 0.005 µM): 0.538; relative viability (NCI-H838; first compound 0.01581 µM): 0.551; relative viability (NCI-H838; first compound 0.05 µM): 0.538; relative viability (NCI-H838; first compound 0.5 µM): 0.564; relative viability (SW 900; first compound 0.005 µM): 0.554; relative viability (SW 900; first compound 0.01581 µM): 0.71; relative viability (SW 900; first compound 0.05 µM): 0.731; relative viability (SW 900; first compound 0.1581 µM): 0.492; relative viability (SW 900; first compound 0.5 µM): 0.524; relative viability (EKVX; first compound 0.005 µM): 0.214; relative viability (EKVX; first compound 0.01581 µM): 0.228; relative viability (EKVX; first compound 0.05 µM): 0.232; relative viability (EKVX; first compound 0.1581 µM): 0.243; relative viability (EKVX; first compound 0.5 µM): 0.236; relative viability (NCI-H1437; first compound 0.005 µM): 0.296; relative viability (NCI-H1437; first compound 0.01581 µM): 0.289; relative viability (NCI-H1437; first compound 0.05 µM): 0.316; relative viability (NCI-H1437; first compound 0.1581 µM): 0.339; relative viability (NCI-H1437; first compound 0.5 µM): 0.317; relative viability (NCI-H2342; first compound 0.005 µM): 0.554; relative viability (NCI-H2342; first compound 0.01581 µM): 0.585; relative viability (NCI-H2342; first compound 0.05 µM): 0.59; relative viability (NCI-H2342; first compound 0.5 µM): 0.632; relative viability (A-427; first compound 0.005 µM): 0.337; relative viability (A-427; first compound 0.01581 µM): 0.308; relative viability (A-427; first compound 0.05 µM): 0.363; relative viability (A-427; first compound 0.1581 µM): 0.315; relative viability (A-427; first compound 0.5 µM): 0.241; relative viability (HCC-15; first compound 0.005 µM): 0.421; relative viability (HCC-15; first compound 0.01581 µM): 0.476; relative viability (HCC-15; first compound 0.05 µM): 0.5; relative viability (HCC-15; first compound 0.1581 µM): 0.581; relative viability (HCC-15; first compound 0.5 µM): 0.426; relative viability (NCI-H650; first compound 0.005 µM): 0.395; relative viability (NCI-H650; first compound 0.01581 µM): 0.457; relative viability (NCI-H650; first compound 0.05 µM): 0.472; relative viability (NCI-H650; first compound 0.1581 µM): 0.39; relative viability (NCI-H650; first compound 0.5 µM): 0.333
